Strand notation (5' to 3'): a small letter for the sugar, then the base; units joined by * are phosphorothioate-linked, units joined directly phosphodiester-linked; [ ] holds rarer units or linkages, { } end groups; capitals alone tell only the bases. e = 2'-O-(2-methoxyethyl) (MOE); [5mC] = 5-methylcytosine; d = 2'-deoxy (DNA)

The first data set deals with human PKK mRNA. Description: Antisense inhibition of human PKK mRNA in HepaRG cells, 5,000 nM (Example 2). The format is cell-based. As to conditions: HepaRG cells, electroporation, 5,000 nM antisense oligonucleotide, approx. 24 hours, primer probe set RTS3454, relative to untreated control cells; Table 11. In outline:
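Chimeric MOE gapmers with full phosphorothioate backbones were tested once at 5,000 nM in electroporated HepaRG cells. After about 24 hours, quantitative PCR measured PKK mRNA relative to untreated control cells.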
Turning to “546360 (antisense eA*e[5mC]*eT*eG*e[5mC]*dA*dT*d[5mC]*dT*dG*dA*dG*d[5mC]*dT*dT*eT*eT*e[5mC]*e[5mC]*eA) [compound 546360]”, the % inhibition – broadly, the relative decrease from the control value, in per cent – is 13%.

In the case of “546362 (antisense eT*e[5mC]*eA*eT*eG*d[5mC]*dT*dG*dG*dT*dG*dA*d[5mC]*dT*dG*e[5mC]*eA*eT*e[5mC]*eT) [compound 546362]”, the “% inhibition” value is recorded as 71%.

Regarding “546363 (antisense e[5mC]*eT*eT*e[5mC]*eT*d[5mC]*dA*dT*dG*d[5mC]*dT*dG*dG*dT*dG*eA*e[5mC]*eT*eG*e[5mC]) [compound 546363]”, the “% inhibition” value is 81%.

In the case of “546364 (antisense eG*eG*eA*e[5mC]*eT*dG*d[5mC]*dT*dT*d[5mC]*dT*d[5mC]*dA*dT*dG*e[5mC]*eT*eG*eG*eT) [compound 546364]”, the “% inhibition” value was 61%.

As for “546365 (antisense eA*eG*eA*e[5mC]*eT*d[5mC]*dT*dG*dG*dA*d[5mC]*dT*dG*d[5mC]*dT*eT*e[5mC]*eT*e[5mC]*eA) [compound 546365]”, the “% inhibition” value was determined as 64%.

“546366 (antisense eT*eG*e[5mC]*e[5mC]*eT*dA*dG*dA*d[5mC]*dT*d[5mC]*dT*dG*dG*dA*e[5mC]*eT*eG*e[5mC]*eT) [compound 546366]”: the “% inhibition” value was found to be 79%.

In the case of “546367 (antisense eA*eA*eA*eA*eA*dT*dT*dG*d[5mC]*d[5mC]*dT*dA*dG*dA*d[5mC]*eT*e[5mC]*eT*eG*eG) [compound 546367]”, the “% inhibition” value worked out at 61%.

In the case of “546368 (antisense eG*eG*eT*eT*eG*dT*dA*dA*dA*dA*dA*dT*dT*dG*d[5mC]*e[5mC]*eT*eA*eG*eA) [compound 546368]”, the “% inhibition” value was 44%.

Turning to “546369 (antisense e[5mC]*eT*e[5mC]*eA*eG*dG*dT*dT*dG*dT*dA*dA*dA*dA*dA*eT*eT*eG*e[5mC]*e[5mC]) [compound 546369]”, the “% inhibition” value is listed as 51%.

“546370 (antisense eA*e[5mC]*eT*eT*eG*dA*dA*d[5mC]*dT*d[5mC]*dA*dG*dG*dT*dT*eG*eT*eA*eA*eA) [compound 546370]”: the “% inhibition” value is recorded as 34%.

Turning to “546372 (antisense eG*eA*eA*eT*eT*dT*dG*dA*d[5mC]*dT*dT*dG*dA*dA*d[5mC]*eT*e[5mC]*eA*eG*eG) [compound 546372]”, the “% inhibition” value amounted to 49%.

On to “546373 (antisense e[5mC]*eT*e[5mC]*eA*eG*dA*dA*dT*dT*dT*dG*dA*d[5mC]*dT*dT*eG*eA*eA*e[5mC]*eT) [compound 546373]”, for which the “% inhibition” value is listed as 59%.

On to “546374 (antisense e[5mC]*e[5mC]*eA*eG*eG*d[5mC]*dT*d[5mC]*dA*dG*dA*dA*dT*dT*dT*eG*eA*e[5mC]*eT*eT) [compound 546374]”, for which the “% inhibition” value worked out at 50%.

“546375 (antisense eG*eA*e[5mC]*e[5mC]*e[5mC]*d[5mC]*d[5mC]*d[5mC]*dA*dG*dG*d[5mC]*dT*d[5mC]*dA*eG*eA*eA*eT*eT) [compound 546375]”: the “% inhibition” value was found to be 48%.

“546378 (antisense eT*eT*eT*eG*e[5mC]*dA*dG*dA*dT*dG*dA*dG*dG*dA*d[5mC]*e[5mC]*e[5mC]*e[5mC]*e[5mC]*e[5mC]) [compound 546378]”: the “% inhibition” value was 79%.

As for “546379 (antisense e[5mC]*eT*e[5mC]*e[5mC]*eA*dT*dG*d[5mC]*dT*dT*dT*dG*d[5mC]*dA*dG*eA*eT*eG*eA*eG) [compound 546379]”, the “% inhibition” value turned out to be 69%.

In the case of “546380 (antisense eG*e[5mC]*e[5mC]*eA*e[5mC]*dT*d[5mC]*dT*d[5mC]*d[5mC]*dA*dT*dG*d[5mC]*dT*eT*eT*eG*e[5mC]*eA) [compound 546380]”, the “% inhibition” value was found to be 81%.

Take “546381 (antisense eG*eA*eA*eG*eA*dT*dG*d[5mC]*d[5mC]*dA*d[5mC]*dT*d[5mC]*dT*d[5mC]*e[5mC]*eA*eT*eG*e[5mC]) [compound 546381]”: the “% inhibition” value was 73%.

With “546382 (antisense e[5mC]*eA*eA*eA*eG*dA*dA*dG*dA*dT*dG*d[5mC]*d[5mC]*dA*d[5mC]*eT*e[5mC]*eT*e[5mC]*e[5mC]) [compound 546382]”, the “% inhibition” value amounted to 58%.

Consider “546383 (antisense eG*eG*eA*eT*eG*d[5mC]*dA*dA*dA*dG*dA*dA*dG*dA*dT*eG*e[5mC]*e[5mC]*eA*e[5mC]) [compound 546383]”, for which the “% inhibition” value came to 57%.

With “546384 (antisense e[5mC]*eG*eT*e[5mC]*e[5mC]*dT*dT*dA*dG*dG*dA*dT*dG*d[5mC]*dA*eA*eA*eG*eA*eA) [compound 546384]”, the “% inhibition” value was determined as 81%.

Consider “546385 (eA*eT*eT*eG*eT*d[5mC]*d[5mC]*dT*d[5mC]*dA*dG*d[5mC]*dA*dG*d[5mC]*eT*e[5mC]*eT*eG*eA; antisense) [compound 546385]”, for which the “% inhibition” value stood at 67%.

As for “546386 (eA*eG*e[5mC]*e[5mC]*eA*dG*dA*d[5mC]*dA*dT*dT*dG*dT*d[5mC]*d[5mC]*eT*e[5mC]*eA*eG*e[5mC]; antisense) [compound 546386]”, the “% inhibition” value amounted to 78%.

On to “546387 (eA*eG*e[5mC]*eG*eG*dG*d[5mC]*dT*dT*d[5mC]*dA*dG*d[5mC]*d[5mC]*dA*eG*eA*e[5mC]*eA*eT; antisense) [compound 546387]”, for which the “% inhibition” value came to 77%.

As to “546388 (e[5mC]*eT*eG*eA*eA*dA*dG*d[5mC]*dG*dG*dG*d[5mC]*dT*dT*d[5mC]*eA*eG*e[5mC]*e[5mC]*eA; antisense) [compound 546388]”, the “% inhibition” value worked out at 71%.

“546389 (e[5mC]*eG*eT*eG*e[5mC]*dT*dG*dA*dA*dA*dG*d[5mC]*dG*dG*dG*e[5mC]*eT*eT*e[5mC]*eA; antisense) [compound 546389]”: the “% inhibition” value was determined as 71%.

Take “546390 (eG*eT*e[5mC]*eA*eG*d[5mC]*d[5mC]*d[5mC]*d[5mC]*dT*dG*dG*dT*dT*dA*e[5mC]*eG*eG*e[5mC]*eG; antisense) [compound 546390]”: the “% inhibition” value is reported as 70%.

“546391 (eG*e[5mC]*eA*eT*eT*dG*dT*d[5mC]*dA*dG*d[5mC]*d[5mC]*d[5mC]*d[5mC]*dT*eG*eG*eT*eT*eA; antisense) [compound 546391]”: the “% inhibition” value is 54%.

In the case of “546392 (eG*eA*e[5mC]*e[5mC]*eT*d[5mC]*dG*d[5mC]*dA*dT*dT*dG*dT*d[5mC]*dA*eG*e[5mC]*e[5mC]*e[5mC]*e[5mC]; antisense) [compound 546392]”, the “% inhibition” value was 72%.

As to “546393 (eT*e[5mC]*eT*e[5mC]*eA*dG*dT*dT*dG*d[5mC]*dG*dA*d[5mC]*d[5mC]*dT*e[5mC]*eG*e[5mC]*eA*eT; antisense) [compound 546393]”, the “% inhibition” value is given as 77%.

With “546394 (eG*eT*e[5mC]*eA*eT*dG*dG*dA*dG*dA*dT*d[5mC]*dT*d[5mC]*dA*eG*eT*eT*eG*e[5mC]; antisense) [compound 546394]”, the “% inhibition” value was found to be 71%.

Staying with this data set, now noted: HepaRG cells, electroporation, 5,000 nM antisense oligonucleotide, approx. 24 hours, primer probe set RTS3454, relative to untreated control cells; Table 12.
As to “546395 (eT*eT*e[5mC]*eA*e[5mC]*dA*dA*d[5mC]*dA*d[5mC]*dA*d[5mC]*dA*dG*dT*e[5mC]*eA*eT*eG*eG; antisense) [compound 546395]”, the “% inhibition” value came out at 72%.

On to “546397 (eT*eT*eT*eT*eT*dT*dG*dA*dT*d[5mC]*dT*dT*dT*d[5mC]*dA*e[5mC]*e[5mC]*eA*eT*eT; antisense) [compound 546397]”, for which the “% inhibition” value is reported as 55%.

As for “546406 (eT*eG*eT*e[5mC]*e[5mC]*dT*dG*dT*d[5mC]*dA*dA*d[5mC]*dA*dT*dA*eT*eT*e[5mC]*e[5mC]*eA; antisense) [compound 546406]”, the “% inhibition” value amounted to 80%.

With “546409 (eG*eG*eG*eT*eT*dT*d[5mC]*dT*dG*d[5mC]*d[5mC]*dA*dA*d[5mC]*dA*eG*eT*eT*eT*e[5mC]; antisense) [compound 546409]”, the “% inhibition” value amounted to 77%.

In the case of “546411 (eA*eT*eA*eT*eT*dG*dA*d[5mC]*dT*dT*dT*dG*dG*dG*dT*eT*eT*e[5mC]*eT*eG; antisense) [compound 546411]”, the “% inhibition” value is 56%.

Consider “546416 (e[5mC]*eT*eG*e[5mC]*eA*dG*dG*d[5mC]*dA*dA*dT*dA*dT*dT*dT*eT*eG*e[5mC]*eT*eT; antisense) [compound 546416]”, for which the “% inhibition” value came out at 62%.

For the substance “546418 (eA*eT*eG*eT*eG*dG*d[5mC]*dA*d[5mC]*dT*dG*d[5mC]*dA*dG*dG*e[5mC]*eA*eA*eT*eA; antisense) [compound 546418]”, the “% inhibition” value turned out to be 72%.

“546419 (eT*eT*e[5mC]*eT*eA*dA*dT*dG*dT*dG*dG*d[5mC]*dA*d[5mC]*dT*eG*e[5mC]*eA*eG*eG; antisense) [compound 546419]”: the “% inhibition” value is reported as 65%.

As for “546421 (eT*e[5mC]*eA*eA*eG*d[5mC]*dT*dG*dT*dT*d[5mC]*dT*dA*dA*dT*eG*eT*eG*eG*e[5mC]; antisense) [compound 546421]”, the “% inhibition” value is given as 71%.

Regarding “546422 (eA*e[5mC]*eG*eG*eT*d[5mC]*dT*dT*d[5mC]*dA*dA*dG*d[5mC]*dT*dG*eT*eT*e[5mC]*eT*eA; antisense) [compound 546422]”, the “% inhibition” value was 72%.

“546425 (eG*eG*eT*e[5mC]*eA*dA*dT*d[5mC]*dT*dG*dA*d[5mC]*dT*dA*dG*eT*eG*eA*eA*eT; antisense) [compound 546425]”: the “% inhibition” value came out at 69%.

As for “546426 (eT*e[5mC]*eT*e[5mC]*eT*dG*dG*dT*d[5mC]*dA*dA*dT*d[5mC]*dT*dG*eA*e[5mC]*eT*eA*eG; antisense) [compound 546426]”, the “% inhibition” value was determined as 49%.

For the substance “546432 (eG*eA*e[5mC]*e[5mC]*e[5mC]*d[5mC]*dA*dA*d[5mC]*dA*dG*dA*d[5mC]*dA*dG*e[5mC]*e[5mC]*e[5mC]*eA*e[5mC]; antisense) [compound 546432]”, the “% inhibition” value stood at 62%.

(Values after patent US11840686B2, “Modulation of prekallikrein (PKK) expression” (Ionis Pharmaceuticals, Inc., priority 2013, dated 2023).)
